Among the data in paper PMC5974765, “Targets Fishing and Identification of Calenduloside E as Hsp90AB1: Design, Synthesis, and Evaluation of Clickable Activity-Based Probe” (Frontiers in Pharmacology, 2018) are Kd values, retold here.

Assay [1] addresses T1, Hsp90AB1 (Homo sapiens, UniProt P08238).
T1 construct: recombinant human Hsp90AB1 protein
Briefly: SPR (Biacore, CM5 chip with immobilized protein); also competes with CE-P in HUVEC lysate pull-down. The assay is classed as binding. For orientation: In SPR one partner is held on a chip, and binding of the other changes the refractive index at the surface.

Assay [2] addresses T1, Hsp90AB1. Briefly: SPR (Biacore, CM5 chip with immobilized protein); also click pull-down of recombinant protein and from HUVEC lysate. The assay is classed as binding.

T1 sequence (P08238 2-724): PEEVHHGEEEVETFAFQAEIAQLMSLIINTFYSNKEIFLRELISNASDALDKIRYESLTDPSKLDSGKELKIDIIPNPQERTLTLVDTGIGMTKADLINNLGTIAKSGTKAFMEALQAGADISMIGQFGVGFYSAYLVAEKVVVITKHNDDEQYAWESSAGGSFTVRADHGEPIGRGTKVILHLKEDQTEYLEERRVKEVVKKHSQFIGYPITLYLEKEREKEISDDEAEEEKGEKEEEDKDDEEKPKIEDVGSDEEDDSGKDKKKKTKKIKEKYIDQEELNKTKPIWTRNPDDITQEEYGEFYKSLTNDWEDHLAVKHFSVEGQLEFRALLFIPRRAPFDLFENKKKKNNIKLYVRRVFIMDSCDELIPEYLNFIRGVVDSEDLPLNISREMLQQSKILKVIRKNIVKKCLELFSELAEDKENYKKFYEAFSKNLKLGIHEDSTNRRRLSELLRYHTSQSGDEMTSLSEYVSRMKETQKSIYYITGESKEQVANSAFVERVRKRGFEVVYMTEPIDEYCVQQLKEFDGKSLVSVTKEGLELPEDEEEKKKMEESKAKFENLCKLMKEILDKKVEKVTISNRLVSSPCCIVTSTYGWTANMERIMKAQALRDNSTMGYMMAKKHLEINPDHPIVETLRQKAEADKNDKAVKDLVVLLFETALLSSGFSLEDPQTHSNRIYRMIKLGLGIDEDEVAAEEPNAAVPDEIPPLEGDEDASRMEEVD

By Kd is commonly meant the constant that tells how readily two partners part at equilibrium. The compound `CC1(C)CC[C@]2(C(=O)O)CC[C@]3(C)C(=CC[C@@H]4[C@@]5(C)CC[C@H](O[C@@H]6O[C@H](C(=O)O)[C@@H](O)[C@H](O)[C@H]6O)C(C)(C)[C@@H]5CC[C@]43C)[C@@H]2C1` [CE, Calenduloside E] had a Kd in assay [1] of 2.34 µM.
With `C#CCNC(=O)C12CCC(C)(C)C[C@H]1C1=CC[C@@H]3[C@@]4(C)CC[C@H](O[C@@H]5O[C@H](C(=O)O)[C@@H](O)[C@H](O)[C@H]5O)C(C)(C)[C@@H]4CC[C@@]3(C)[C@]1(C)CC2` (some centres unmarked) [VI, CE-P], the Kd in assay [2] turned out to be 23.4 µM.
